Data reported in patent US20210393677A1, “COMPOUNDS FOR MODULATION AND AS FUNCTIONAL REPLACEMENT OF ALPHAKETOGLUTARIC ACID (2OG)-DEPENDENT OXYGENASES” (priority 2018, published 2021).

Key:
TET enzyme = assay: cell-free TET assay (co-substrate function); assay type: biochemical; conditions: FIG. 16B
HCT116 IDH1+/+ cells = assay: 2-HG content by LC-MS/MS in HCT116 IDH1+/+ cells; assay type: cell-based, human; conditions: ML309 10 μM, untreated 0.15
Procedure: Es is known that IDH1 mutations are connected with a modified IDH1 enzyme function that induces the excess production of neomorphous metabolite 2-hydroxyglutarate. In order to validate the increased frequency of 2-HG in HCT116 IDH1R132H/+ cells compared to HCT116 IDH1+/+ cells, the 2-HG content was analyzed by means of LC-MS/MS analysis (illustration 1). Intracellular 2-HG in IDH1R132H/+ cells was 56 times higher than in IDH1 wildtype cells (8.5 nmol/mg protein or 0.15 nmol/mg protein; 56 times higher; p<0.0001). Furthermore, the treatment with the IDH1 inhibitor ML309 (10 μM) led to a significant reduction of the oncometabolite 2-HG in the HCT116 IDH1R132H/+ cells to (0.3 nmol/mg protein) and to a lower degree of IDH1+/+ (0.04 nmol/mg protein) (Fig.). In contrast, DKA produced only minimum changes in the 2-HG concentrations in the mutated cells (5.9 nmol/mg protein). […] FIG. 10.
HCT116 (ATCC-Nr. CCL-247), a human colorectal carcinoma cell line, was acquired from the American Type Culture Collection (ATCC; https://www.atcc.org/). Human colon carcinoma cells HCT116 IDH1+/+ and HCT116 IDH1R132H/+ come from Horizon Discovery and were let us for test purposes. The cells were cultured in Dulbecco's Modified Eagle's Medium (DMEM) with 2 mM L-glutamine, supplemented with 10% fetal bovine serum (FBS), 45 IU/ml penicillin and 45 IU/ml streptomycin. […]

[1] = tested on: TET enzymes in IDH1R132H/+ cells; assay: activation of TET enzymes in IDH1R132H/+ cells (5-hmdC levels); assay type: cell-based, human; conditions: IDH1R132H/+ cells (FIG. 11)
Procedure: Likewise, promotion of the secondary apoptosis occurs, which indicates the recovery of the cell function on a molecular level (cf. FIG. 11). The native 2-OG again enters into the normal cell metabolism and thus again inhibits the malignant derailment of the cell (secondary way of formation of 2-OG from glutamic acid is omitted).
Samples of genomic DNA (20 μg) were hydrolyzed with micrococcal nuclease from Staphylococcus aureus, bovine spleen phosphodiesterase, and bovine intestinal alkaline phosphatase (all from Sigma-Aldrich, Taufkirchen, Germany) to 2′-deoxynucleosides, as described, with modifications of the application. […] Then, DNA hydrolysates were centrifuged (5 min, 16,000×g), and 10 μL of the supernatants were used for the quantification of dC and 5-mdC stable marked references.
Compounds [15N2,13Cl]dC and 5-mdC-d3 (both from Toronto Research Chemicals, Toronto, Canada). […] Chromatographic conditions and settings of the ESI source were as described for the quantification of dC and 5-mdC [62]. […] The quantification of 5-hmdC with respect to the stable isotope-marked standard that were both eluted at 4.9 min from the LC column (the retention times of dC and 5-mdC were 4.7 or 6.0 min, respectively), was performed with the aid of the Multiple Reaction Monitoring (MRM) approach. […] For clear identification, further mass transitions were recorded. […]

SMILES | effect in the assay (TET enzyme) | intracellular 2-HG (HCT116 IDH1+/+ cells) [nmol/mg protein] | activation of the inhibited TET enzymes [1]
O=C(O)C(=O)C(O)C(O)C(O)CO (stereo not drawn) [2-ketogulonic acid] | dose-dependent effect |  | 
Cc1ccccc1C(C(=O)NC1CCCC1)N(C(=O)Cn1cnc2ccccc21)c1cccc(F)c1 (stereo not drawn) [ML309, reference compound] |  | 0.04 | does not activate
